Here are results for three compounds from PMC5526999, “Mass Spectrometry Imaging proves differential absorption profiles of well-characterised permeability markers along the crypt-villus axis” (Scientific Reports, 2017).

Series [1] can be described thus: LC-ESI MS/MS quantification of drug concentration in intestinal tissue homogenates after oral cassette administration. It counts as in vivo, rat. The protocol:
Male rats (Han-Wistar, ~ 100 days old, body-weight ~ 300 g) were used in this study. […] All experiments were performed in accordance with relevant guidelines and regulations, the animal work was approved by the Local Animal Research Ethics Board of Gothenburg, Sweden. […] Four animals were dosed in this study, and non-dosed tissue was prepared from control rats in parallel. […] Therefore, in the present study we focussed on the concept of “vertical” absorption gradients along the crypt-villous axis, which has not been studied earlier. The intestine was removed under anaesthesia using isoflurane (Forene, Abbott, USA), to ensure full viability and oxygenation of the tissue until the moment of excision. Animals were sacrificed without regaining consciousness by aortal incision and an overdose of isoflurane. Immediately after excision, intestines were divided into 10 cm long segments and each segment was carefully washed with Krebs-Bicarbonate-Ringer buffer (KBR) from the stomach to the large intestine (additional information in Supplementary Data). The first 5–10 mm of each segment were cut, quickly weighed and collected in homogenization tubes for subsequent extraction and LCMS analysis of total drug concentration in the gut-wall. The next 8–9 cm of each segment were prepared for MALDI-MSI analysis. […] The CMC gels quickly on wet-ice/isopropanol and provides tissue support during the subsequent cryosectioning. All samples were stored at −20 °C until cryosectioning. […] The supernatants were transferred to fresh vials and centrifuged again under the same conditions. […] The samples were analysed by LC-MS/MS and quantified against a calibration standard curve. The LC-MS/MS analysis was performed using an electrospray ionization tandem quadrupole mass spectrometer (Quattro Premier, Waters, USA) in positive ionization mode. The mass spectrometer was integrated with an ultra-performance liquid chromatography (UPLC) system (Acquity, Waters) assisted with a column manager. Chromatography was performed on a column (Acquity UPLC HSS T3, 2.1 × 50 mm) at 40 °C. The flow rate was 1000 µL/min and the injection volume was 5 µL. The mobile phases consisted of A: water, 0.2% (v/v) formic acid and 2% (v/v) acetonitrile and B: acetonitrile, 0.2% (v/v) formic acid. […] Data was acquired using multiple reaction monitoring (MRM) and mass transitions determined by QuanOptimize (Waters). Instrument control and data processing was performed using MassLynx 4.1 software including QuanLynx (Waters).

For series [2], the system named is Caco-2. On the set-up: method as in PMID 1673839, PMID 11259831, PMID 9523990. The note with it: ref [1], [15] and [48]; cited from earlier work.
Series [3] can be described thus: MALDI-MSI of drug distribution in rat small intestine after oral cassette administration. As to conditions: oral 10 µmol/kg. It counts as in vivo. The protocol: Male rats (Han-Wistar, ~ 100 days old, body-weight ~ 300 g) were used in this study. […] All experiments were performed in accordance with relevant guidelines and regulations, the animal work was approved by the Local Animal Research Ethics Board of Gothenburg, Sweden. […] Four animals were dosed in this study, and non-dosed tissue was prepared from control rats in parallel. […] Therefore, in the present study we focussed on the concept of “vertical” absorption gradients along the crypt-villous axis, which has not been studied earlier. The intestine was removed under anaesthesia using isoflurane (Forene, Abbott, USA), to ensure full viability and oxygenation of the tissue until the moment of excision. Animals were sacrificed without regaining consciousness by aortal incision and an overdose of isoflurane. Immediately after excision, intestines were divided into 10 cm long segments and each segment was carefully washed with Krebs-Bicarbonate-Ringer buffer (KBR) from the stomach to the large intestine (additional information in Supplementary Data). The first 5–10 mm of each segment were cut, quickly weighed and collected in homogenization tubes for subsequent extraction and LCMS analysis of total drug concentration in the gut-wall. The next 8–9 cm of each segment were prepared for MALDI-MSI analysis. […] The CMC gels quickly on wet-ice/isopropanol and provides tissue support during the subsequent cryosectioning. All samples were stored at −20 °C until cryosectioning. The embedded samples were attached and positioned with OCT-compound (TissueTek) to the specimen holder of a microtome (Cryo-Star HM 560 M, Microm International, Germany) set to −20 °C. The samples were sectioned at 10 µm thickness. […] A control tissue section from the same intestinal region from non-dosed animal was placed on each slide to enable a direct comparison to be made. All slides were kept at −80 °C until MALDI-MSI analysis. Tissue sections were also stained using haematoxylin and eosin (H&E) following a standard histological protocol for fresh frozen tissues. […] Additional optimization was performed using a robotic matrix sprayer (TM-Sprayer, HTX Technologies, USA) in order to minimize delocalization and crystal size, while still maintaining adequate extraction of compound from the tissue. […] An optical image (9600 dpi) of the glass slide was acquired using a flatbed scanner (Epson perfection V500). The tissue sections were coated with DHB (35 mg/ml, 70% ACN, 0.2% TFA) using a robotic sprayer with a flow of rate 70 µl/min, stage speed of 1100 mm/min, track spacing of 2 mm (crisscross pattern), nitrogen pressure 6 psi, and spray nozzle temperature set to 95 °C for 8 passes. […] FlexImaging 4.0 (Bruker Daltonics) and msIQuant 2.0 was used for data analysis, normalization (to total ion count) and ion image extraction.

For series [4] the following is noted: no reference given; cited from earlier work.
Details of series [5]: method as in PMID 1673839, PMID 11259831, PMID 9523990. As to conditions: ref [1], [15] and [48]; cited from earlier work.
Setting [6] is: 20 min, 30 cm along the intestine, line graph along crypt-villus axis.
[7] abbreviates: oral 10 µmol/kg, 20 min post administration.

On to `COCCc1ccc(OCC(O)CNC(C)C)cc1` (stereo not drawn) [Metoprolol], for which the “lower tissue concentration at 45 min compared to 20 min (LC-MS/MS)” value in series [1] (male, Han-Wistar, rat, in vivo, po) is on record as “about 3 fold”. For the same compound, the “Caco-2 Papp” value in series [2] is recorded as 27.0 1E-6.cm/s. The “distance over which the gradient from villus tip towards crypt region runs” value in series [3] (setting [6]) stood at 200 µm. Also, in series [4], the “Tmax in the rat” value is given as less than 20 min.

For `CC(C)NCC(O)COc1ccc(CC(N)=O)cc1` (stereo not drawn) [Atenolol], the “distance from the pyloro-duodenal junction of highest concentration (LC-ESI MS/MS homogenates)” value in series [1] (oral 1 µmol/kg, 20 min post administration) was found to be 50 cm. Moreover, the “intestinal sample with highest concentration” value in series [1] (setting [7]) was determined as 20 cm. Besides, the “intensity profile from villus tip to base (line graph)” value in series [3] (20 min, 30 cm along the intestine) is reported as “maintain similar intensities all the way from the villus tip to the basal regions”. In addition, in series [3] (20 min, profile perpendicular to the villus axis), the “localisation across and within the villi (transverse profile)” value is recorded as “localized primarily between the villi”. In addition, in series [5], the “Ion Class” value is listed as “Base”.

For `CC(C)NCC(O)COc1cccc2ccccc12` (stereo not drawn) [Propranolol], the “lower tissue concentration at 45 min compared to 20 min (LC-MS/MS)” value in series [1] (oral 10 µmol/kg, 40 cm sample) is “about 3 fold”. Also, the “intestinal sample with highest concentration” value in series [1] (setting [7]) turned out to be 30 cm. Further, the “Caco-2 Papp” value in series [2] is reported as 41.9 1E-6.cm/s. Also, in series [3] (40 cm sample), the “lower level at 45 min compared to 20 min (MSI)” value is recorded as “about 3 fold”. Also, the “distance from the villus tips of significant reduction in abundance” value in series [3] (setting [6]) is 400–500 µm. Further, in series [5], the “Ion Class” value is “Base”.
